This experiment has as its target Plasmodium falciparum purine nucleoside phosphorylase (PfPNP) (Plasmodium falciparum (isolate 3D7), UniProt Q8I3X4). Put plainly: biochemical.

Description: For inhibitors without slow-onset properties, fits to the same equation were made, but using initial reaction rates.

The Kd is the constant that tells how readily two partners part at equilibrium. The molecule `O=c1[nH]cnc2c(CNC[C@@H](O)[C@H](O)CO)c[nH]c12` (racemic) [Example 20.5, 7-(((2RS,3RS)-2,3,4-trihydroxybutylamino)methyl)-3H-pyrrolo[3,2-d]pyrimidin-4(5H)-one] had a Kd of 32 ± 2 µM. `O=c1[nH]cnc2c(CNCC(CO)CO)c[nH]c12` [Example 8, 7-((3-hydroxy-2-(hydroxymethyl)propylamino)methyl)-3H-pyrrolo[3,2-d]pyrimidin-4(5H)-one]: the affinity, expressed as Kd, was 0.21 ± 0.05 µM. For `O=c1[nH]cnc2c(CNC[C@H](O)[C@H](O)CO)c[nH]c12` [Example 19.3, 7-(((2S,3R)-2,3,4-trihydroxybutylamino)methyl)-3H-pyrrolo[3,2-d]pyrimidin-4(5H)-one], binding was put at a Kd of 12 ± 2 µM.

These data come from US8853224B2 (priority 2006, dated 2014).
